Legend:
[1] = tested on: phosphorylation of ERK, KRAS G12D in AGS cells; assay: pERK inhibition assay; type: cell-based; conditions: 4 hours
How it was run: (§1)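 Phospho-ERK quantified by in-cell ELISA with TMB read-out at OD450 following 4 h compound exposure (final 0.5% DMSO). Cell lines were SW620 (KRAS G12V), AGS (G12D) and NCI-H358 (G12C), grown in RPMI-1640 with 10% FBS. A 4-parameter sigmoidal model gave the IC50.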

[2] = tested on: phosphorylation of ERK, KRAS G12C in NCI-H358 cells; assay: pERK inhibition assay; type: cell-based; conditions: Homo sapiens, NCI-H358, 4 h
How it was run: as §1

[3] = tested on: phosphorylation of ERK, KRAS G12V in SW620; assay: pERK inhibition assay; type: cell-based; conditions: Homo sapiens, SW-620, 4 h, SW620 cells
How it was run: as §1

WT NRAS-BRAF complex = assay: WT NRAS-BRAF with CYPA interaction assay (TR-FRET); type: biochemical
Description: In this example, TR-FRET was used to measure the compound or compound-CYPA dependent disruption of the KRAS G12V-BRAF complex to assess inhibition efficacy. The IC50 ratio between WT KRAS/HRAS/NRAS and KRAS G12V mutant was calculated as selective index, which indicated tolerability and safety profile. Disruption of WT KRAS/HRAS/NRAS-BRAF complex by compounds was detected respectively. In assay buffer containing 25 mM HEPES (PH-7.4,4-(2-hydroxyethyl)-1-piperazineethanesulfonic acid, Thermo, 15630080), 0.002% Tween20, 0.1% BSA, 100 mM NaCl, 5 mM MgCl2, 10 μM GMPPNP (Guanosine 5′-[β,γ-imido]triphosphate trisodium salt hydrate, Sigma, G0635), tagless CYPA and GMPPNP loaded 6His-RAS proteins, and GST-BRAF^RBD were mixed in a well of a 384-well assay plate at final concentrations of 50 nM, 6.25 nM and 1 nM, respectively. Compound was present in plate wells as a 16-point 3-fold dilution series starting at a final concentration of 10 μM and incubated for 3 hours. A mixture of MAb Anti-6His-XL665 (Cisbio, 61HISXLB) and Mab anti-GST-TB cryptate (Cisbio, 61GSTTLB) was then added at a final concentration of 6.67 nM and 0.21 nM, respectively, and the plate was incubated for an additional 1.5 hours. TR-FRET signal was read on a PHERstar FSX microplate reader (Ex320 nm, Em 665/615 nm). Compounds that facilitate disruption of the RAS-BRAF complex were identified as those eliciting a decrease in the TR-FRET ratio relative to DMSO control wells.

[4] = tested on: Miapaca-2 KRAS G12C + S17E; assay: Stable KRAS mutant cell line viability assay (CellTiter-Glo); type: cell-based; conditions: Miapaca-2 mutant cells, 3 d
Source text: (§2) The aim of the study was to determine the potency and efficacy of compounds for cell proliferation using CellTiter-Glo® (CTG) Luminescent Cell Viability Assay (Promega Corp., Madison, WI). We cloned 14 KRAS^G12C variant sequences with secondary mutations (V8A, V9Y, S17E, T58I, A59T, S65W, R68S, D69P, M72I, D92R, H95N, Y96D, Q99W and F156L) into the Miapaca-2. Totally 14 stable Miapaca-2 mutant cell lines were established through lentivirus infection. For the cell viability assay, cells were dosed with compounds in a 9-point dose-response using a 4 fold dilution series at a top dose of 10 μM. KRAS mutant cells were maintained in DMEM+10% FBS+2.5% HI Horse serum+1% PS+1 μg/mL Puromycin and seeded into 96-well plates at 800-1,500 cells per well 24 h before compound addition and then incubated with compound for 3 d before assaying viability (CellTiter-Glo, Promega). Assays were performed in biological duplicates. Nonlinear regression curves were fitted using Xfit. IC50 (absolute IC50) is the dose at which the estimated viability is 50% relative to untreated wells.

[5] = tested on: Miapaca-2 KRAS G12C + H95N; assay: as above; type: cell-based; conditions: Miapaca-2 mutant cells, 3 d
Source text: as §2

[6] = tested on: Miapaca-2 KRAS G12C + T58I; assay: as above; type: cell-based; conditions: Miapaca-2 mutant cells, 3 d
Source text: as §2

[7] = tested on: Miapaca-2 KRAS G12C + R68S; assay: as above; type: cell-based; conditions: Miapaca-2 mutant cells, 3 d
Source text: as §2

[8] = tested on: Miapaca-2 KRAS G12C + Q99W; assay: as above; type: cell-based; conditions: Miapaca-2 mutant cells, 3 d
Source text: as §2

[9] = tested on: Miapaca-2 KRAS G12C + F156L; assay: as above; type: cell-based; conditions: Miapaca-2 mutant cells, 3 d
Source text: as §2

[10] = tested on: Miapaca-2 KRAS G12C + V8A; assay: as above; type: cell-based; conditions: Miapaca-2 mutant cells, 3 d
Source text: as §2

## CO[C@@H](C)c1ncc(N2CCN(C)CC2)cc1-c1c2c3cc(cc4c3n1CCC4)-c1csc(n1)C[C@H](NC(=O)[C@H]1[C@H](C)[C@@H]1C)C(=O)N1CCC[C@H](N1)C(=O)OCC(C)(C)C2 (atropisomer, axis not shown; (M)) [Example 24, (1r,2R,3S)-N-[(7S,13S)-(20M)-20-[2-[(1S)-1-methoxyethyl]-5-(4-methylpiperazin-1-yl)-3-pyridyl]-17,17-dimethyl-8,14-dioxo-15-oxa-4-thia-9,21,30,31-tetrazahexacyclo[23.3.1.1^2,5.1^9,13.0^19,27.0^21,26]hentriaconta-1 (28),2,5 (31), 19,25 (29),26-hexaen-7-yl]-2,3-dimethyl-cyclopropanecarboxamide]
[1]
  IC50: 0.9 nM
[2]
  IC50: < 0.6 nM
[3]
  IC50: < 0.6 nM
WT NRAS-BRAF complex
  Selectivity Index (IC50 ratio) WT NRAS/KRAS G12V: 5.0
[4]
  IC50: 3 nM
[5]
  IC50: 1 nM
[6]
  IC50: 2 nM
[7]
  IC50: 2 nM
[8]
  IC50: 5 nM
[9]
  IC50: 1 nM
[10]
  IC50: 1 nM

— patent US20240417410A1, “TRICYCLIC COMPOUNDS FOR THE TREATMENT OF CANCER” (Hoffmann-La Roche Inc., priority 2023, published 2024)
